# Reference: patent publication US20230146455A1, “TREATMENT OF INFLAMMATORY DISEASES WITH PEPTIDES AND PHARMACEUTICAL COMPOSITIONS” (Yuyu Pharma, Inc., priority 2020, published 2023)
# Where “and” joins values, the source holds several entries; their conditions need not be identical. Equal entries are not always repeated. Where a SMILES comes first, the peptide text is derived from it. [ ]: non-standard residue; d: D form. Hyp = O=C(O)[C@@H]1C[C@@H](O)CN1
# Test system: TNF-alpha
# Experiment: Example 9 Luminex, LPS hPBMCs: TNF-alpha
# Assay type: cell-based, human
# Procedure: Treatment Human PBMCs were pretreated with YY-101, YDE-011 and YDE-043 or reference compound; Xiidra® at various concentration (ranging from 1 nM to 100 uM) for 2 h before stimulation. An equal volume of 0.5% DMSO was used as a vehicle control. Then, the cells were treated with LPS at 5 ug/ml. The supernatants from treated cells were harvested at 24 h and placed in a 96 well for Luminex cytokine & chemokine profiling using a Luminex 200 multiplex assay (Luminex; R&D system, USA).
# The main study arm with triplicate wells per group in a 24-well plate: • 1. Blank • 2. PBMC: 0.5% DMSO • 3. PBMC+LPS (5 ug/ml) • 4. PBMC+YY-101 100 uM • 5. PBMC+YY-101 10 uM • 6. PBMC+YY-101 1 uM • 7. PBMC+YY-101 0.1 uM • 8. PBMC+YY-101 0.01 uM • 9. PBMC+LPS (5 ug/ml)+Xiidra®100 uM • 10. PBMC+LPS (5 ug/ml)+Xiidra® 10 uM • 11. PBMC+LPS (5 ug/ml)+Xiidra® 1 uM • 12. PBMC+LPS (5 ug/ml)+Xiidra®0.1 uM • 13. PBMC+LPS (5 ug/ml)+Xiidra®0.01 uM • 14. PBMC+LPS (5 ug/ml)+Xiidra®0.001 uM • 15. PBMC+LPS (5 ug/ml)+YY-101 100 uM • 16. PBMC+LPS (5 ug/ml)+YY-101 10 uM • 17. PBMC+LPS (5 ug/ml)+YY-101 1 uM • 18. PBMC+LPS (5 ug/ml)+YY-101 0.1 uM • 19. PBMC+LPS (5 ug/ml)+YY-101 0.01 uM • 20. PBMC+LPS (5 ug/ml)+YY-101 0.001 uM • 21. PBMC+LPS (5 ug/ml)+YDE-011 100 uM • 22. PBMC+LPS (5 ug/ml)+YDE-011 10 uM • 23. PBMC+LPS (5 ug/ml)+YDE-011 1 uM • 24. PBMC+LPS (5 ug/ml)+YDE-011 0.1 uM • 25. PBMC+LPS (5 ug/ml)+YDE-011 0.01 uM • 26. PBMC+LPS (5 ug/ml)+YDE-011 0.001 uM • 27. PBMC+LPS (5 ug/ml)+YDE-043 100 uM • 28. PBMC+LPS (5 ug/ml)+YDE-043 10 uM • 29. PBMC+LPS (5 ug/ml)+YDE-043 1 uM • 30. PBMC+LPS (5 ug/ml)+YDE-043 0.1 uM • 31. PBMC+LPS (5 ug/ml)+YDE-043 0.01 uM • 32. PBMC+LPS (5 ug/ml)+YDE-043 0.001 uM
# Multiplex assay was used to measure 30 cytokines and chemokines. The 1:2, 1:10 and 1:200 diluted cell supernatant and serial dilution of the standard were dispensed into a 96 well plate at 50 ul/well. Then, the pre-mixed cocktail of antibody-coated magnetic beads was dispensed at 50 ul/well and incubated at room temperature for 2 h in a horizontal orbital microplate shaker at 800±500 rpm. The beads were washed using a magnetic device to prevent loss. The biotin-antibody was dispensed in 50 ul of each well and incubated at room temperature for 1 h in a shaker at 800±500 rpm. After washing, streptavidin-PE was added at 50 ul/well and incubated at room temperature for 30 min in a shaker under the same conditions. Finally, after washing, wash buffer (100 ul/well) was added to the plate and incubated in a shaker for 2 min. The Luminex™ 200 setting were set according to the manufacturer's protocol. The data was calculated with a standard five-parameter logistic nonlinear regression analysis of the data (xPonent software 4.2, USA). The levels of cytokine/chemokine are normalized to the live cell counts (1×10^5 cells/mL) and presented as concentrations per mL (pg/mL or ng/mL).
# [1] = PBMC + LPS(5 ug/ml) + test article 0.001 uM, Mean
# [2] = PBMC + LPS(5 ug/ml) + test article 0.001 uM, individual replicates (1st, 2nd, 3rd)
# [3] = PBMC + LPS(5 ug/ml) + test article 0.01 uM, Mean
# [4] = PBMC + LPS(5 ug/ml) + test article 0.01 uM, individual replicates (1st, 2nd, 3rd)
# [5] = PBMC + LPS(5 ug/ml) + test article 0.1 uM, Mean
# [6] = PBMC + LPS(5 ug/ml) + test article 0.1 uM, individual replicates (1st, 2nd, 3rd)
# [7] = PBMC + LPS(5 ug/ml) + test article 1 uM, Mean
# [8] = PBMC + LPS(5 ug/ml) + test article 1 uM, individual replicates (1st, 2nd, 3rd)
# [9] = PBMC + LPS(5 ug/ml) + test article 10 uM, Mean
# [10] = PBMC + LPS(5 ug/ml) + test article 10 uM, individual replicates (1st, 2nd, 3rd)
# [11] = PBMC + LPS(5 ug/ml) + test article 100 uM, Mean
# [12] = PBMC + LPS(5 ug/ml) + test article 100 uM, individual replicates (1st, 2nd, 3rd)
# [13] = PBMC + test article 0.01 uM, no LPS, Mean
# [14] = PBMC + test article 0.01 uM, no LPS, individual replicates (1st, 2nd)
# [15] = PBMC + test article 0.1 uM, no LPS, Mean
# [16] = PBMC + test article 0.1 uM, no LPS, individual replicates (1st, 2nd)
# [17] = PBMC + test article 1 uM, no LPS, Mean
# [18] = PBMC + test article 1 uM, no LPS, individual replicates (1st, 2nd)
# [19] = PBMC + test article 10 uM, no LPS, Mean
# [20] = PBMC + test article 10 uM, no LPS, individual replicates (1st, 2nd)
# [21] = PBMC + test article 100 uM, no LPS, Mean
# [22] = PBMC + test article 100 uM, no LPS, individual replicates (1st, 2nd)
compound,measurement,setting,value
CC(C)C[C@H](NC(=O)CNC(=O)[C@H](CC(=O)O)NC(=O)[C@H](CCC(N)=O)NC(=O)CNC(=O)[C@@H]1C[C@@H](O)CN1)C(=O)N[C@@H](C)C(=O)NCC(=O)N1CCC[C@H]1C(=O)N[C@@H](CCCCN)C(=O)O [YY-101] (H-[Hyp]GQDGLAGPK-OH; N-terminus and C-terminus assumed),LPS-induced TNF-alpha (in words),"LPS 5 ug/mL 24 hrs, at as low as 1 nM",significantly reduced
same,TNF-alpha Concentration,[1],2433.4 pg/mL
same,TNF-alpha conc/live cell,[1],379.7 pg/10^5
same,TNF-alpha Concentration,[2],2537.1 pg/mL and 2609.2 pg/mL and 2154.0 pg/mL
same,TNF-alpha conc/live cell,[2],445.1 pg/10^5 and 367.5 pg/10^5 and 326.4 pg/10^5
same,TNF-alpha Concentration,[3],2746.9 pg/mL
same,TNF-alpha conc/live cell,[3],445.6 pg/10^5
same,TNF-alpha Concentration,[4],2819.6 pg/mL and 2784.2 pg/mL and 2636.8 pg/mL
same,TNF-alpha conc/live cell,[4],440.6 pg/10^5 and 464.0 pg/10^5 and 432.3 pg/10^5
same,TNF-alpha Concentration,[5],2852.4 pg/mL
same,TNF-alpha conc/live cell,[5],489.7 pg/10^5
same,TNF-alpha Concentration,[6],2791.9 pg/mL and 2870.4 pg/mL and 2895.0 pg/mL
same,TNF-alpha conc/live cell,[6],450.3 pg/10^5 and 552.0 pg/10^5 and 466.9 pg/10^5
same,TNF-alpha Concentration,[7],2552.6 pg/mL
same,TNF-alpha conc/live cell,[7],392.3 pg/10^5
same,TNF-alpha Concentration,[8],2738.1 pg/mL and 2506.5 pg/mL and 2413.2 pg/mL
same,TNF-alpha conc/live cell,[8],434.6 pg/10^5 and 353.0 pg/10^5 and 389.2 pg/10^5
same,TNF-alpha Concentration,[9],2746.8 pg/mL
same,TNF-alpha conc/live cell,[9],416.6 pg/10^5
same,TNF-alpha Concentration,[10],2741.2 pg/mL and 2807.3 pg/mL and 2692.0 pg/mL
same,TNF-alpha conc/live cell,[10],456.9 pg/10^5 and 438.6 pg/10^5 and 354.2 pg/10^5
same,TNF-alpha Concentration,[11],2443.4 pg/mL
same,TNF-alpha conc/live cell,[11],423.4 pg/10^5
same,TNF-alpha Concentration,[12],2569.3 pg/mL and 2318.5 pg/mL and 2442.3 pg/mL
same,TNF-alpha conc/live cell,[12],407.8 pg/10^5 and 374.0 pg/10^5 and 488.5 pg/10^5
same,TNF-alpha Concentration,[13],28.1 pg/mL
same,TNF-alpha conc/live cell,[13],5.6 pg/10^5
same,TNF-alpha Concentration,[14],26.8 pg/mL and 29.4 pg/mL
same,TNF-alpha conc/live cell,[14],5.1 pg/10^5 and 6.1 pg/10^5
same,TNF-alpha Concentration,[15],29.4 pg/mL
same,TNF-alpha conc/live cell,[15],5.8 pg/10^5
same,TNF-alpha Concentration,[16],26.8 pg/mL and 32.0 pg/mL
same,TNF-alpha conc/live cell,[16],6.1 pg/10^5 and 5.5 pg/10^5
same,TNF-alpha Concentration,[17],33.3 pg/mL
same,TNF-alpha conc/live cell,[17],6.1 pg/10^5
same,TNF-alpha Concentration,[18],32.0 pg/mL and 34.6 pg/mL
same,TNF-alpha conc/live cell,[18],5.8 pg/10^5 and 6.3 pg/10^5
same,TNF-alpha Concentration,[19],61.4 pg/mL
same,TNF-alpha conc/live cell,[19],9.7 pg/10^5
same,TNF-alpha Concentration,[20],90.9 pg/mL and 32.0 pg/mL
same,TNF-alpha conc/live cell,[20],14.2 pg/10^5 and 5.2 pg/10^5
same,TNF-alpha Concentration,[21],72.7 pg/mL
same,TNF-alpha conc/live cell,[21],11.0 pg/10^5
same,TNF-alpha Concentration,[22],95.0 pg/mL and 50.5 pg/mL
same,TNF-alpha conc/live cell,[22],14.8 pg/10^5 and 7.2 pg/10^5
